Results: patent US20260242330A1, “USE OF AN AMANTADINE MONONITRATE COMPOUND IN MANUFACTURE OF A MEDICAMENT FOR THE PREVENTION AND TREATMENT OF HYPERTENSION” (GUANGZHOU MAGPIE PHARMACEUTICALS CO., LTD., priority 2022, published 2026)

Tested on: blood pressure of subjects
Assay: Effect of single administration of MN-08 on blood pressure of subjects (clinical trial)
Format: in vivo, human
Excerpt: All subjects in the following embodiments have signed informed consent forms, which comply with medical ethics regulations. According to the relevant provisions of Chinese Guidelines for the Prevention and Treatment of Hypertension (2018 Revision), the values measured for hypertension are the average blood pressure measured three times on a different day without the use of antihypertensive drugs. Therefore, in this embodiment, the baseline blood pressure of the subjects before administration is set as the average blood pressure measured at three different times: screening period, occupancy period, and 1 hour before administration, as shown in Tables 1 to 3.
In the clinical trial of amantadine mononitrate compound MN-08, it is investigated the effect of MN-08 on blood pressure in subjects. The experiments were carried out to analyze the blood pressure status of subjects in both the single dose and multiple dose groups.
During a single administration, each dose group is required to fast for at least 10 hours before administration, without water deprivation overnight, and on the day of administration, the medication is taken on an empty stomach at around 8 a.m., with 240 mL of water administered.

CCC12CC3CC(N)(C1)CC(CO[N+](=O)[O-])(C3)C2 (stereo not shown) [MN-08]
DP (reduce amplitude) (Subject 7, 78 mg single dose, 6 hrs after adm. (D 1), vs baseline 74 mmHg): −16.2%
SP (reduce amplitude) (Subject 7, 78 mg single dose, 6 hrs after adm. (D 1), vs baseline 106 mmHg): −11.3%
DP (Subject 7, 78 mg single dose, 12 hrs after adm. (D 1), baseline 74 mmHg): 60 mmHg
SP (Subject 7, 78 mg single dose, 12 hrs after adm. (D 1), baseline 106 mmHg): 102 mmHg
DP (reduce amplitude) (Subject 7, 78 mg single dose, 12 hrs after adm. (D 1), vs baseline 74 mmHg): −18.9%
SP (reduce amplitude) (Subject 7, 78 mg single dose, 12 hrs after adm. (D 1), vs baseline 106 mmHg): −3.8%
DP (Subject 8, 96 mg single dose, 6 hrs after adm. (D 1), baseline 69 mmHg): 51 mmHg
SP (Subject 8, 96 mg single dose, 6 hrs after adm. (D 1), baseline 101 mmHg): 79 mmHg
DP (reduce amplitude) (Subject 8, 96 mg single dose, 6 hrs after adm. (D 1), vs baseline 69 mmHg): −26.1%
SP (reduce amplitude) (Subject 8, 96 mg single dose, 6 hrs after adm. (D 1), vs baseline 101 mmHg): −21.8%
DP (Subject 8, 96 mg single dose, 12 hrs after adm. (D 1), baseline 69 mmHg): 61 mmHg
SP (Subject 8, 96 mg single dose, 12 hrs after adm. (D 1), baseline 101 mmHg): 87 mmHg
DP (reduce amplitude) (Subject 8, 96 mg single dose, 12 hrs after adm. (D 1), vs baseline 69 mmHg): −11.6%
SP (reduce amplitude) (Subject 8, 96 mg single dose, 12 hrs after adm. (D 1), vs baseline 101 mmHg): −13.8%
DP (Subject 9, 96 mg single dose, 6 hrs after adm. (D 1), baseline 78 mmHg): 63 mmHg
SP (Subject 9, 96 mg single dose, 6 hrs after adm. (D 1), baseline 121 mmHg): 105 mmHg
DP (reduce amplitude) (Subject 9, 96 mg single dose, 6 hrs after adm. (D 1), vs baseline 78 mmHg): −19.2%
SP (reduce amplitude) (Subject 9, 96 mg single dose, 6 hrs after adm. (D 1), vs baseline 121 mmHg): −13.2%
DP (Subject 9, 96 mg single dose, 12 hrs after adm. (D 1), baseline 78 mmHg): 68 mmHg
SP (Subject 9, 96 mg single dose, 12 hrs after adm. (D 1), baseline 121 mmHg): 103 mmHg
DP (reduce amplitude) (Subject 9, 96 mg single dose, 12 hrs after adm. (D 1), vs baseline 78 mmHg): −12.8%
SP (reduce amplitude) (Subject 9, 96 mg single dose, 12 hrs after adm. (D 1), vs baseline 121 mmHg): −14.8%
DP (Subject 10, 114 mg single dose, 6 hrs after adm. (D 1), baseline 75 mmHg): 62 mmHg
SP (Subject 10, 114 mg single dose, 6 hrs after adm. (D 1), baseline 115 mmHg): 92 mmHg
DP (reduce amplitude) (Subject 10, 114 mg single dose, 6 hrs after adm. (D 1), vs baseline 75 mmHg): −17.3%
SP (reduce amplitude) (Subject 10, 114 mg single dose, 6 hrs after adm. (D 1), vs baseline 115 mmHg): −20.0%
DP (Subject 10, 114 mg single dose, 12 hrs after adm. (D 1), baseline 75 mmHg): 57 mmHg
SP (Subject 10, 114 mg single dose, 12 hrs after adm. (D 1), baseline 115 mmHg): 90 mmHg
DP (reduce amplitude) (Subject 10, 114 mg single dose, 12 hrs after adm. (D 1), vs baseline 75 mmHg): −24.0%
SP (reduce amplitude) (Subject 10, 114 mg single dose, 12 hrs after adm. (D 1), vs baseline 115 mmHg): −21.7%
DP (Subject 11, 114 mg single dose, 6 hrs after adm. (D 1), baseline 85 mmHg): 68 mmHg
SP (Subject 11, 114 mg single dose, 6 hrs after adm. (D 1), baseline 126 mmHg): 119 mmHg
DP (reduce amplitude) (Subject 11, 114 mg single dose, 6 hrs after adm. (D 1), vs baseline 85 mmHg): −20.0%
SP (reduce amplitude) (Subject 11, 114 mg single dose, 6 hrs after adm. (D 1), vs baseline 126 mmHg): −5.6%
DP (Subject 11, 114 mg single dose, 12 hrs after adm. (D 1), baseline 85 mmHg): 68 mmHg
SP (Subject 11, 114 mg single dose, 12 hrs after adm. (D 1), baseline 126 mmHg): 105 mmHg
DP (reduce amplitude) (Subject 11, 114 mg single dose, 12 hrs after adm. (D 1), vs baseline 85 mmHg): −20.0%
SP (reduce amplitude) (Subject 11, 114 mg single dose, 12 hrs after adm. (D 1), vs baseline 126 mmHg): −16.7%
DP (Subject 12, 132 mg single dose, 6 hrs after adm. (D 1), baseline 78 mmHg): 59 mmHg
SP (Subject 12, 132 mg single dose, 6 hrs after adm. (D 1), baseline 123 mmHg): 120 mmHg
DP (reduce amplitude) (Subject 12, 132 mg single dose, 6 hrs after adm. (D 1), vs baseline 78 mmHg): −24.4%
SP (reduce amplitude) (Subject 12, 132 mg single dose, 6 hrs after adm. (D 1), vs baseline 123 mmHg): −2.4%
DP (Subject 12, 132 mg single dose, 12 hrs after adm. (D 1), baseline 78 mmHg): 60 mmHg
SP (Subject 12, 132 mg single dose, 12 hrs after adm. (D 1), baseline 123 mmHg): 105 mmHg
DP (reduce amplitude) (Subject 12, 132 mg single dose, 12 hrs after adm. (D 1), vs baseline 78 mmHg): −23.1%
SP (reduce amplitude) (Subject 12, 132 mg single dose, 12 hrs after adm. (D 1), vs baseline 123 mmHg): −14.6%
DP (Subject 13, 132 mg single dose, 6 hrs after adm. (D 1), baseline 68 mmHg): 54 mmHg
SP (Subject 13, 132 mg single dose, 6 hrs after adm. (D 1), baseline 106 mmHg): 97 mmHg
DP (reduce amplitude) (Subject 13, 132 mg single dose, 6 hrs after adm. (D 1), vs baseline 68 mmHg): −20.6%
SP (reduce amplitude) (Subject 13, 132 mg single dose, 6 hrs after adm. (D 1), vs baseline 106 mmHg): −8.5%
DP (Subject 13, 132 mg single dose, 12 hrs after adm. (D 1), baseline 68 mmHg): 56 mmHg
SP (Subject 13, 132 mg single dose, 12 hrs after adm. (D 1), baseline 106 mmHg): 96 mmHg
DP (reduce amplitude) (Subject 13, 132 mg single dose, 12 hrs after adm. (D 1), vs baseline 68 mmHg): −17.6%
SP (reduce amplitude) (Subject 13, 132 mg single dose, 12 hrs after adm. (D 1), vs baseline 106 mmHg): −9.4%
effect of a single dose on blood pressure (all dose groups (6, 12, 42, 60, 78, 96, 114, 132 mg), especially diastolic pressure): can reduce the blood pressure
